{"source": "paper PMC8945229", "about": "“Development and Biological Characterization of a Novel Selective TrkA Agonist with Neuroprotective Properties against Amyloid Toxicity” (Biomedicines, 2022)", "key": {"CYP1A2": {"target": "T1, CYP1A2 (Homo sapiens, UniProt P05177)", "T1 construct": "purchased Thermo Fisher Scientific; host or cells: Baculosomes (microsomes of baculovirus-infected insect cells: own knowledge)", "T1 sequence (P05177 2-516 limits assumed)": "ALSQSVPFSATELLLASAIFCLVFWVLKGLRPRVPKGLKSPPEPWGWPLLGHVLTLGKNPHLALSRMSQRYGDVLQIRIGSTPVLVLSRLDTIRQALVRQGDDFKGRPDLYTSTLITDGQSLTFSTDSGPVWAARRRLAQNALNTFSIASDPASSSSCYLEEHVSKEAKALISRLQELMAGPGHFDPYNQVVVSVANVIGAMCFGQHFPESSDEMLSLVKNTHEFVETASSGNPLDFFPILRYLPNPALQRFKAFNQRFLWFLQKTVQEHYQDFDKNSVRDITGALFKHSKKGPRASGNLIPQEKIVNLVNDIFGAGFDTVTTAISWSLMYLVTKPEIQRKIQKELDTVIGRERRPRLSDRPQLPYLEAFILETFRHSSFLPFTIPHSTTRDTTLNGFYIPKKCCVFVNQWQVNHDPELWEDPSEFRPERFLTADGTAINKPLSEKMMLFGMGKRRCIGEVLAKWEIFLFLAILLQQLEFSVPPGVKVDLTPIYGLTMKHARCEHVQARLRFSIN", "assay": "Isozyme-specific CYP450 inhibition (Baculosomes)", "format": "in vitro ADME", "details": "1 μM, 60 min", "experimental": "(§1) Baculosomes® expressing CYP1A2, CYP2A6, CYP2B6, CYP2C9, CYP2C19, CYP2D6 and CYP3A4 human CYP450 isoenzymes were purchased from Thermo Fisher Scientific (Waltham, MA, USA). All reagents were handled and prepared according to the manufacturer’s protocol. ENT-A013 was tested at 1 μM. Enzymatic activity in the presence of ΕΝΤ-A013 was assessed based on the kinetic model for CYP1A2, CYP2A6, CYP2B6, CYP2C9, CYP2C19, CYP2D6 and CYP3A4 isoforms. Reactions took place in triplicates at 20 °C. Glucose-6-phosphate at 333 mM and glucose-6-phosphate-dehydrogenase at 30 U/mL in 100 mM potassium phosphate, pH 8.0 (regeneration system) converted NADP^+ (10 mM in 100 mM potassium phosphate, pH 8.0) into NADPH to initiate the CYP450 reaction. Upon the addition of the fluorescent substrate, immediately (<2 min), the fluorescence signal was monitored over time at suitable excitation and emission wavelengths by Lionheart FX (BioTek, Winooski, VT, USA) (Table S2). CYP450 inhibition (%) was determined based on the reaction rates (fluorescence intensity changes per unit time). A total of n = 60 measurements per minute were acquired for a total time of t = 60 min. % Inhibition= (1 − X/A) × 100%(1) where: X is the rate observed in the presence of test-compound; A is the rate observed in the presence of negative (solvent, DMSO) control."}, "CYP2B6": {"target": "T2, CYP2B6 (Homo sapiens, UniProt P20813)", "T2 construct": "purchased Thermo Fisher Scientific; host or cells: Baculosomes (microsomes of baculovirus-infected insect cells: own knowledge)", "T2 sequence (P20813 whole entry)": "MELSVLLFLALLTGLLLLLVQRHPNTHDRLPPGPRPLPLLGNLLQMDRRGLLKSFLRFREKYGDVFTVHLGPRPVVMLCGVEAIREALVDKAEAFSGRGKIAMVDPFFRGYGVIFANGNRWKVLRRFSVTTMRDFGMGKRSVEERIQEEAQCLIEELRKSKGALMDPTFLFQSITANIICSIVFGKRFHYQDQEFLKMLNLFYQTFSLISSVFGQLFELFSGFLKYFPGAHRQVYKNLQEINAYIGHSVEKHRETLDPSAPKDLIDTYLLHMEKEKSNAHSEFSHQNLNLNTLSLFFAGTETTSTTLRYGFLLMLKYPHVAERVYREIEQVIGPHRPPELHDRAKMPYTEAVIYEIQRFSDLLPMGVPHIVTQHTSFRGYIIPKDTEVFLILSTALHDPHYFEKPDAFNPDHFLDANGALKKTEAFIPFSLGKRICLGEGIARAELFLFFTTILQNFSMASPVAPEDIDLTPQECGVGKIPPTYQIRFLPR", "assay": "Isozyme-specific CYP450 inhibition (Baculosomes)", "format": "in vitro ADME", "details": "1 μM, 60 min", "experimental": "as §1"}, "CYP2C9": {"target": "T3, CYP2C9 (Homo sapiens, UniProt P11712)", "T3 construct": "purchased Thermo Fisher Scientific; host or cells: Baculosomes (microsomes of baculovirus-infected insect cells: own knowledge)", "T3 sequence (P11712 whole entry)": "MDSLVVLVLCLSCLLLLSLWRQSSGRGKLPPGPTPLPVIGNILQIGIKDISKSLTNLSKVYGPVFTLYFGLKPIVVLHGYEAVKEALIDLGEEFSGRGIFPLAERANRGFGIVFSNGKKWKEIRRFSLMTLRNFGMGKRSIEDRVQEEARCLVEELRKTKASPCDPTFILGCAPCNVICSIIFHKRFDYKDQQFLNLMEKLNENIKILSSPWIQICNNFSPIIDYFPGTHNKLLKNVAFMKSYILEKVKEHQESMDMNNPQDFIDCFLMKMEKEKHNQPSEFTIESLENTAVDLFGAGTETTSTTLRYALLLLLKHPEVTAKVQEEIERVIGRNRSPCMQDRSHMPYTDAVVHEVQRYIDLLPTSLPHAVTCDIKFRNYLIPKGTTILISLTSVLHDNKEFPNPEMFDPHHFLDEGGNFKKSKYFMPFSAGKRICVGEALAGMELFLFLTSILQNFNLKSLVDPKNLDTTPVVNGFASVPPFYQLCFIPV", "assay": "Isozyme-specific CYP450 inhibition (Baculosomes)", "format": "in vitro ADME", "details": "1 μM, 60 min", "experimental": "as §1"}, "CYP2D6": {"target": "T4, CYP2D6 (Homo sapiens, UniProt P10635)", "T4 construct": "purchased Thermo Fisher Scientific; host or cells: Baculosomes (microsomes of baculovirus-infected insect cells: own knowledge)", "T4 sequence (P10635 whole entry)": "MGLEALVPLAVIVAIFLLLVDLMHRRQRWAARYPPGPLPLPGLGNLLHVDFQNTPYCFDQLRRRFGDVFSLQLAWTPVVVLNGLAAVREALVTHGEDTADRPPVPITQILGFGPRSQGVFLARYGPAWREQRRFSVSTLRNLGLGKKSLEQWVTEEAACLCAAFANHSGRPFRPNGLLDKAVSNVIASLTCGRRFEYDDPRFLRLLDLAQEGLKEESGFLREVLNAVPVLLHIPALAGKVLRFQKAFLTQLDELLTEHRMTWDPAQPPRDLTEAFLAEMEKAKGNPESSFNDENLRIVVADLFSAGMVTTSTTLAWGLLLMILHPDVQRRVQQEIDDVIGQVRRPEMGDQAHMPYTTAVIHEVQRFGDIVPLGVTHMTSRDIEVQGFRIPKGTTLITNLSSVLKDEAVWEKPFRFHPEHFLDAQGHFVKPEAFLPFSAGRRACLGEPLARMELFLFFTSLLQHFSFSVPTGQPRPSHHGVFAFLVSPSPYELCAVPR", "assay": "Isozyme-specific CYP450 inhibition (Baculosomes)", "format": "in vitro ADME", "details": "1 μM, 60 min", "experimental": "as §1"}, "[1]": {"tested_on": "Primary hippocampal neurons", "assay": "Synaptophysin synapse assay in primary hippocampal neurons treated with oligomeric Aβ", "format": "cell-based, mouse", "details": "5 μM oligomeric Aβ, 500 nM, 4 h", "experimental": "Primary hippocampal neurons were isolated from E17.5 mouse embryos (C57BL/6J, The Jackson Laboratory, Bar Harbor, ME, USA) as previously described and cultured with Neurobasal medium containing 2% B27, 1X GlutaMax, 10 mM HEPES and 1% PenStrep. Cells were maintained in a humified incubator at 37 °C and 5% CO2. For TUNEL assay, cells were left in culture for 16–18 days and then treated with 5 μM oligomeric Aβ along with ENT-A013 (500 nM, every 24 h) for 48 h. Cells were then fixed with 4% PFA and labelled with TUNEL (F. Hoffmann–La Roche Ltd., Basel, Switzerland, cat# 11684795910) following the manufacturer’s protocol. Subsequently, cells were immunostained against Tuj1 and imaged with confocal microscopy. For synaptic plasticity assay, cells were left in culture for 16–18 days and then treated with 5 μM oligomeric Aβ along with ENT-A013 (500 nM) for 4 h. Cells were then fixed with 4% PFA and immunostained against Tuj1 and Synaptophysin (1:1000, PA1-1043, Invitrogen, Waltham, MA, USA), anti-mouse Alexa fluor 488 (1:1000, A-11029, Invitrogen, Waltham, MA, USA) and anti-rabbit Alexa fluor 546 (1:1000, A10040, Invitrogen, Waltham, MA, USA). Images were acquired using confocal microscopy and the total area of synaptophysin positive puncta was measured and normalized to Tuj1 total area."}, "[2]": {"tested_on": "HEK cells transfected with p75NTR", "assay": "CellTox assay in serum-starved HEK cells transfected with p75NTR", "format": "cell-based", "details": "500 nM, 24hrs", "experimental": "(A) HEK cells transfected with p75NTR and Traf6 were treated with ENT-A013 (500nM) or NGF (100ng/ml) for 30’ and then were subjected to immunoprecipitation experiments against p75.\n(C) HEK cells transfected with p75NTR were starved from serum and treated with ENT-A013 (500nM) or NGF (100ng/ml) for 24hrs and subsequently subjected to CellTox assay. […]\ndifference between ENT-A013 treated group and negative control (Serum Free).\n(1 picture or pasted object on this page, not shown here)"}}, "data": [{"smiles": "CC12CCC(O)CC1=CCC1C2CCC2(C)C1CCC21CC1C=CBr", "note": "[ENT-A013, (2′R,3S,17S)-2′-(2-Bromovinyl)-5-Androstene-17,1′-Cyclopropan-3-ol]", "values": [{"measurement": "CYP450 inhibition (in words)", "setting": "CYP1A2", "value": "weak inhibitor"}, {"measurement": "CYP450 inhibition (in words)", "setting": "CYP2B6", "value": "weak inhibitor"}, {"measurement": "CYP450 inhibition (in words)", "setting": "CYP2C9", "value": "weak inhibitor"}, {"measurement": "CYP450 inhibition (in words)", "setting": "CYP2D6", "value": "moderate inhibition"}, {"measurement": "synapse number (synaptophysin area normalized to Tuj1 area)", "setting": "[1]", "value": "1.08 ± 0.08 % of control FC"}, {"measurement": "cell death vs negative control (Serum Free) (in words)", "setting": "[2]", "value": "no significant"}]}]}
